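Tested at 5 concentrations; 48 h exposure; 96-well plates; endpoints linearly interpolated, else capped at highest concentration. The concentration for 50% growth inhibition is given as GI50. At the TGI there is no net growth.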
Tested on: MDA-MB-468 breast
Experiment: DTP human tumour cell line panel, 48 h

Structure (SMILES)	GI50 [µM]	TGI [µM]
COc1ccc(-c2cc(-c3ccc(Cl)cc3)nc(SCCCC(=O)NO)n2)cc1OC	1.17	4.27
Cc1c(Br)c(Br)c2c3c1nc(N1CCNCC1)n3CCC2	1.6	3.31
COC(=O)C1C(=O)C(C(=O)OC)C2CCC1N2C (centres undefined)	69.5	> 100
Oc1c(Cl)cc(Cl)c(Cl)c1Cc1c(O)c(Cl)cc(Cl)c1Cl	0.661	8.45
CC(=O)NC(CCc1ccc(Cl)c(Cl)c1)c1cccc(O)c(=O)c1 (centres undefined)	0.442	4.07
N#Cc1ncc(-c2ccc(C(F)(F)F)cc2)c(NC2CCCCCC2)n1	4.16	> 100
C=CCc1cc(O)ccc1O	14	32.4
Cc1ccc2c(-c3ccnc(Nc4cccc(C(F)(F)F)c4)n3)c(-c3ccccc3)nn2n1	0.509	4.58
C#Cc1ccc(C(=O)NCc2ccc(/C=C/C(=O)c3nccn3C)cc2)cc1	2.6	8.76
C/C=C(/C)C(=O)OC1C=C(CO)C(=O)C(OC(=O)C2(C)OC2C)C1C(C)C (centres undefined)	1.46	3.46
CCN1C[C@@H](C)n2c(c(O)c3c(=O)n(Cc4ccc(F)c(Cl)c4)nc(C(=O)NC)c32)C1=O	2.51	8.18
CCNCCS(=O)(=O)NC[C@@]1(c2ccccc2)SC(NC(=O)C(C)(C)C)=NN1C(=O)C(C)(C)C	< 0.01	–
Oc1ccc(/C=N/NC(=S)Nc2ccccc2)nc1	1.32	4.4
COc1cc(C2C=C(C)N=C3SC=C(C)N32)cc(OC)c1OC (centres undefined)	1.12	2.67
CCN(CC)Cc1cc(Nc2ccnc3ccc(OC)cc23)ccc1O	1.67	4.47
CCOC(=O)C(Cc1ccccc1)n1c(O)c(/C=N/c2ncc(Cc3ccc(Cl)cc3Cl)s2)sc1=S (centres undefined)	2.48	7.35
CN1C(=O)[C@@H](CC2CCCC2)N(C2CCCC2)c2nc(Nc3cc(Cl)c(O)c(Cl)c3)ncc21	19.1	89.9
Cc1cc(NS(=O)(=O)c2ccc(-c3cnc(C4CC4)o3)cc2)ccc1Cl	0.165	12.7
Cn1cc(Nc2nccc(-c3ccc4c(c3)CN(C3COC3)CC[C@H]4NC(=O)c3cn(C(C)(C)C)nn3)n2)cn1	39	> 100
CC(C)N(CCNc1nc(C(Cl)(Cl)Cl)nc2cc(Cl)ccc12)C(C)C	1.38	2.82

Structure (SMILES)	GI50 [µM]	TGI [µM]
CC(C)=CCc1c2c(c(O)c3c1O[C@]14C(=C[C@@H]5C[C@H]1C(C)(C)O[C@@]4(C/C=C(/C)C(=O)O)C5=O)C3=O)C=CC(C)(C)O2	15.8	35.5
Cn1ccc(S(=O)(=O)N2CCC[C@H](Nc3nccc(-c4c(-c5cccc(O)c5)nc5occn45)n3)C2)n1	8.15	31.9
CN(C)C/C=C/C(=O)Nc1ccc(C(=O)Nc2cccc(Nc3ncc(Cl)c(-c4c[nH]c5ccccc45)n3)c2)cc1	0.018	0.043
CN1CCC(=C(c2ccc(Cl)cc2)c2ccccn2)CC1	38.9	> 100
Cc1ccc(NC(=O)c2cc(/C=C/C(=O)NO)cc(C(F)(F)F)c2)cc1Nc1nccc(-c2cccnc2)n1	1.43	3.94
Cc1cc2c(C(C)C)c(O)c(O)c(/C=N/O)c2c(O)c1-c1c(C)cc2c(C(C)C)c(O)c(O)c(/C=N/O)c2c1O	2.05	6.44
COc1cc(C(=O)/C=C/c2cccnc2Nc2ccc(Cl)cc2)cc(OC)c1OC	1.29	2.67
COc1cccc(N2C(=N)/C(=C3\Nc4ccccc4S3)CC2=O)c1	26.2	> 100
CCCCNC(=O)CC1=C(C)/C(=C/c2[nH]c(-c3ccc[nH]3)cc2OC)N=C1C	2.04	7.5
CCN(CC)CCOc1ccc2c(-c3ccccc3)c(-c3ccc(OC)cc3)c(=O)oc2c1	2.58	8.73
CC[C@]1(O)CC2CN(CCc3c([nH]c4ccccc34)C(C(=O)OC)(c3cc4c(cc3OC)N(C=O)[C@H]3[C@@](O)(C(=O)OC)[C@H](OC(C)=O)[C@]5(CC)[C@@H]6C[C@@H]6CN6CC[C@]43[C@@H]65)C2)C1 (some centres undefined)	< 0.00325	< 0.00325
N#Cc1c(-c2ccccc2)nc(SCC(O)CN2CCOCC2)nc1N1CCOCC1 (centres undefined)	2.16	21.5
O=C1NC(=NCCc2ccccc2F)S/C1=C\c1ccc2ncccc2c1	2.67	> 18.6
CC(C)(Oc1cccc(N2CCC[C@@H](C(=O)N(Cc3ccc(-c4cn[nH]c4)cc3)C3CC3)C2)c1)C(=O)N1CCNCC1	2.23	6.8
Fc1ccc(C2CC(c3cccc(Nc4ccncc4)c3)=NN2c2ccccc2)cc1 (centres undefined)	1.54	3.37
Cc1ccc(/C=C(/C#N)n2nnc3cccc(F)c32)cc1	0.702	6.3
Nc1ncc(-c2ccc3ncnc(N4CCc5cc(F)c(Cl)cc54)c3c2)cc1C=O	0.306	1.63
CCN(CC)CCOc1ccc(/C(=C(\C)Cc2ccc(OC)cc2)c2ccc(O)cc2)cc1	1.54	3.05
O=C(Nc1nc2ccc(OC(F)(F)F)cc2s1)c1ccc(F)cc1	2.36	7.36
Cc1ncnc2c1ccn2[C@@H]1C[C@H](Oc2cc(C(F)F)c(F)c3c2CNCC3)[C@@H](O)[C@H]1O	> 100	> 100

From PubChem BioAssay (NCI)
